For test [1], the target named is T1, human 5-HT1A serotonergic receptor (Homo sapiens, UniProt P08908).
T1 construct: expressed in transfected cells; host or cells: HeLa
T1 sequence (P08908 1-422): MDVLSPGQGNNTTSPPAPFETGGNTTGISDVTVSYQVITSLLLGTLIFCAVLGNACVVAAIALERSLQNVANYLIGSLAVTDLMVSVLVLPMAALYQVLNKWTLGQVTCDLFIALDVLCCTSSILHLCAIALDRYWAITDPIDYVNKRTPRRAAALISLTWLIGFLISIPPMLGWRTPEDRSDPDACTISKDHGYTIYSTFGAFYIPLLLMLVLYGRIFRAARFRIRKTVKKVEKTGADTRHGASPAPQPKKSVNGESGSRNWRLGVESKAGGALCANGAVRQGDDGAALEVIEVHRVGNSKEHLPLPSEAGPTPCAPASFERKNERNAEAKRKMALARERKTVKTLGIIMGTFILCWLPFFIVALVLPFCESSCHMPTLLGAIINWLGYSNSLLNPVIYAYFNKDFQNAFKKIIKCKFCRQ
Put plainly: Radioreceptor binding, recombinant human 5-HT1A receptors ([3H]8-OH-DPAT, HeLa membranes). The conditions noted are these: recombinant human receptor, [3H]8-OH-DPAT; Ki from IC50 by Cheng & Prusoff; read-out: Binding affinity for the 5-HT1A receptor, Ki. Summed up:
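Membranes from HeLa cells stably transfected with human 5-HT1A clone G-21 incubated 30 min at 30° C with 0.2-1 nM [3H]8-OH-DPAT in 50 mM Tris HCl pH 7.4, 2.5 mM MgCl2, 10 μM pargiline; nonspecific binding with 10 μM 5-HT. Filtration assay; IC50 from curve fitting converted to Ki by Cheng-Prusoff.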

Test [2] has as its system rhythmic bladder voiding contractions. Put plainly: Volume-induced rhythmic bladder voiding contractions in anaesthetized rats. In kind it is in vivo, rat. The conditions noted are these: Rattus norvegicus; for ED (10 min disappearance of contractions): read-out: ED10 min; for ED50: read-out: ED50 (frequency). Here is the method:
Female Sprague Dawley rats weighing 225-275 g (Crl: CDo BR, Charles River Italia) were used. The animals were housed with free access to food and water and were maintained on a forced 12 h alternating light-dark cycle at 22-24° C. for at least one week, except during the experiment. The activity on the rhythmic bladder voiding contractions was evaluated according to the method of Dray (J. Pharmacol. Methods, 13:157, 1985), with some modifications as in Guarneri (Pharmacol. Res., 27:173, 1993). Briefly, rats were anesthetized by subcutaneous injection of 1.25 g/kg (5 ml/kg) urethane, after which the urinary bladder was catheterized via the urethra using PE 50 polyethylene tubing filled with physiological saline. The catheter was tied in place with a ligature around the external urethral orifice and was connected with conventional pressure transducers (Statham P23 ID/P23 XL). […] The bladder was then filled via the recording catheter by incremental volumes of warm (37° C.) saline until reflex bladder voiding contractions occurred (usually 0.8-1.5 ml). For intravenous (i.v.) injection of bioactive compounds, PE 50 polyethylene tubing filled with physiological saline was inserted into the jugular vein. From the cystometrogram, the number of contractions recorded 15 min before (basal values) and after treatment, as well as the mean amplitude of these contractions (mean height of the peaks in mmHg) was evaluated.
Since most compounds produced an effect that was relatively rapid in onset and led to a complete cessation of bladder contractions, bioactivity was conveniently estimated by measuring the duration of bladder quiescence (i.e., the duration of time during which no contractions occurred). The number of animals tested showing a reduction in the number of contractions >30% of that observed in the basal period was also recorded.
Also computed in this manner were extrapolated doses which induced a reduction of the number of contractions of greater than 30% in 50% of treated rats (ED50, frequency) by the method of Bliss (Bliss C. I., Quart. J. Pharm. Pharmacol. 11, 192-216, 1938). After the suppressive effects of drug injection wore off, the height of the contractile peaks was compared with the height of the peaks previously recorded after the control intravenous administration of vehicle. The potency of the tested compounds (ED50 value: the extrapolated doses inducing a 30% reduction of amplitude of the contractions in 50% of treated rats) was evaluated on a quantal basis by the method of Bliss (Bliss C. I., Quart. J. Pharm. Pharmacol. 11, 192-216, 1938).

A further test relates to urinary bladder. As to the kind of experiment: Cystometric parameters (cystometrogram) in conscious rats. It is filed as in vivo, rat. Particulars: for BVC after treatment / MP after treatment: mean ± S.E.; for change in vivo at 0.3 mg/kg / change in vivo at 1 mg/kg: Rattus norvegicus, iv, 0.25 h, after vs before; for change in vivo at 0.3 mg/kg: i.v. 300 μg/kg; for change in vivo at 1 mg/kg: i.v. 1000 μg/kg. Here is the method: Male Sprague Dawley rats (Crl: CDo BR) weighing 250-350 g were used. The animals were housed with free access to food and water and maintained on a forced 12 h alternating light-dark cycle at 22-24° C. for at least one week, except during performance of the experiment. To quantify urodynamic parameters in conscious rats, cystometrographic studies were performed using procedures previously described (Guarneri et al., Pharmacol. Res., 24:175, 1991). […] An approximately 10 mm long midline incision was made in the shaved and cleaned abdominal wall. The urinary bladder was gently freed from adhering tissues, emptied, and then cannulated, via an incision at the dome, with a polyethylene cannula (Portex PP30), which was permanently sutured with silk thread. The cannula was exteriorized through a subcutaneous tunnel in the retroscapular area, where it was connected with a plastic adapter to avoid the risk of removal by the animal. For intravenous (i.v.) injection of test compounds, a PE 50 polyethylene tubing filled with physiological saline was inserted into the jugular vein and exteriorized in the retroscapular area. The rats were utilized exclusively one day after implantation. On the day of the experiment, the rats were placed in Bollman's cages, after a stabilization period of 20 min, and the free tip of the bladder catheter was connected through a T-shaped tube to a pressure transducer (Bentley T 800/Marb P 82) and to a peristaltic pump (Gilson minipuls 2) for a continuous infusion, at the constant rate of 0.1 ml/min, of saline solution into the urinary bladder. The intraluminal pressure signal during infusion was continuously recorded on a polygraph (Battaglia Rangoni KO 380 with ADCl/T amplifier).
Two urodynamic parameters were evaluated: bladder volume capacity (BVC) and micturition pressure (MP). BVC (in ml) is defined as the minimum volume infused after which detrusor contraction (followed by micturition) occurs. MP (in mm Hg) is defined as the maximal intravesical pressure induced by the contraction of detrusor during micturition. Basal BVC and MP values were calculated as the means of the first two recorded cystometrograms. At this point in the assay, the infusion was interrupted and the test compounds were administered. Fifteen minutes after intravenous administration two additional cystometrograms were recorded in each animal and the mean values of the two cystometrographic parameters were calculated. The statistical significance of the differences in urodynamic parameter values was evaluated by Student's t test for paired data.

Where [3] appears, read: extrapolated dose inducing 10 min of disappearance of the contractions, intravenous, anaesthetized rats.
The mark [4] stands for this setting: extrapolated dose inducing a reduction of the number of contractions >30% in 50% of treated rats, intravenous.

Where two headings read alike, the source gives them in different places.

The Ki is a dissociation constant, usually derived from enzyme kinetics or from competition with a known ligand. By ED50 is commonly meant the dose at which the effect has come halfway, by size or by number of responders.

Turning to `COc1cc(NC(C)=O)ccc1N1CCN(CCN(C(=O)C2CCCCC2)c2ccccc2OC(F)(F)F)CC1` [Example 57, 1-[N-cyclohexylcarbonyl-N-(2-trifluoromethoxyphenyl)-2-aminoethyl]-4-(4-acetylamino-2-methoxyphenyl)piperazine], the Ki in test [1] turned out to be 0.74 nM. Besides, in test [2] (setting [3]), the ED (10 min disappearance of contractions) is 0.254 mg/kg. Also, the ED50 in test [2] (setting [4]) is 0.252 mg/kg.

In the case of `O=C(C1CCCCC1)N(CCN1CCN(c2cccc3[nH]ccc23)CC1)c1ccccc1OCC(F)(F)F` [Example 69, 1-[N-cyclohexylcarbonyl-N-[2-(2,2,2-trifluoroethoxyphenyl)]-2-aminoethyl]-4-(4-indolyl)piperazine], in test [1], the Ki was 0.32 nM. Further, the ED (10 min disappearance of contractions) in test [2] (setting [3]) was 0.06 mg/kg. For the same compound, the ED50 in test [2] (setting [4]) is 0.014 mg/kg.

In the case of `COc1ccccc1NCCN1CCN(c2cccc3[nH]ccc23)CC1` [Example 47, 1-[N-(2-methoxyphenyl)-2-aminoethyl]-4-(4-indolyl)piperazine], the Ki in test [1] came to 2.33 nM. Also, the ED (10 min disappearance of contractions) in test [2] (setting [3]) is 0.181 mg/kg. Further, the ED50 in test [2] (setting [4]) is 0.02 mg/kg.

As for `COc1ccccc1NCCN1CCN(c2ccccc2OC)CC1` [Example 20, 1-[N-(2-methoxyphenyl)-2-aminoethyl]-4-(2-methoxyphenyl)piperazine], the Ki in test [1] worked out at 24.6 nM. Besides, in test [2] (iv), the ED (10 min disappearance of contractions) was found to be 0.097 mg/kg and the ED50 was determined as 0.025 mg/kg.

As for `COc1cc(N)ccc1N1CCN(CCN(C(=O)C2CCCCC2)c2ccccc2OCC(F)(F)F)CC1` [Example 66], the Ki in test [1] amounted to 0.76 nM. Also, in test [2] (setting [3]), the ED (10 min disappearance of contractions) was 0.167 mg/kg. In test [2] (setting [4]), the 50% effective dose (ED50) is 0.058 mg/kg.

On to `COc1ccccc1N(CCN1CCN(c2cccc3[nH]ccc23)CC1)C(=O)C1CCCCC1` [Example 48, 1-[N-cyclohexylcarbonyl-N-(2-methoxyphenyl)-2-aminoethyl]-4-(4-indolyl)piperazine], for which, in test [1], the Ki was 0.46 nM. Further, the ED (10 min disappearance of contractions) in test [2] (setting [3]) was 0.04 mg/kg. The ED50 in test [2] (setting [4]) was 0.014 mg/kg.

With `COc1ccccc1N1CCN(CCNc2ccccc2C(C)=O)CC1` [Example 11, 1-[N-(2-acetylphenyl)-2-aminoethyl]-4-(2-methoxyphenyl)piperazine], the Ki in test [1] was found to be 2.92 nM. The ED (10 min disappearance of contractions) in test [2] (setting [3]) was 0.318 mg/kg. Also, in test [2] (setting [4]), the ED50 is 0.04 mg/kg.

In the test on urinary bladder (15 min after i.v. 300 μg/kg), `O=C(C1CCCCC1)N(CCN1CCN(c2cccc3[nH]ccc23)CC1)c1ccccc1OC(F)(F)F` [Example 51, 1-[N-cyclohexylcarbonyl-N-(2-trifluoromethoxyphenyl)-2-aminoethyl]-4-(4-indolyl)piperazine] gave a BVC after treatment of 0.84 ± 0.14 mL and an MP after treatment of 73.7 ± 6.1 mmHg. In addition, in the test with urinary bladder (15 min after i.v. 1000 μg/kg), the BVC after treatment stood at 1.08 ± 0.09 mL and the MP after treatment worked out at 67.9 ± 5.6 mmHg. In addition, in the test on urinary bladder (read-out: BVC % of change), the change in vivo at 0.3 mg/kg stood at 27.7% and the change in vivo at 1 mg/kg amounted to 36.5%. Further, in the test on urinary bladder (read-out: MP % of change), the change in vivo at 0.3 mg/kg was -7.9% and the change in vivo at 1 mg/kg was -13.3%. The inhibitory constant (Ki) in test [1] came to 0.24 nM. For the same compound, the ED (10 min disappearance of contractions) in test [2] (setting [3]) is 0.276 mg/kg. The ED50 in test [2] (setting [4]) is 0.2 mg/kg.

With `COc1ccccc1N1CCN(CCNc2ccccc2C#N)CC1` [Example 10, 1-[N-(2-cyanophenyl)-2-aminoethyl]-4-(2-methoxyphenyl)piperazine], the Ki in test [1] stood at 17.2 nM. Further, in test [2] (setting [3]), the ED (10 min disappearance of contractions) was 0.122 mg/kg. Further, the ED50 in test [2] (setting [4]) was 0.028 mg/kg.

As for `COc1ccccc1N1CCN(CCN(C(=O)C2CCCCC2)c2ccccc2N)CC1` [Example 27, 1-[N-(2-aminophenyl)-N-cyclohexylcarbonyl-2-aminoethyl]-4-(2-methoxyphenyl) piperazine], the Ki in test [1] was found to be 0.57 nM. In test [2] (setting [3]), the ED (10 min disappearance of contractions) was 0.131 mg/kg. Also, the ED50 in test [2] (setting [4]) is 0.013 mg/kg.
